Like-named read-outs stand apart in the source and are kept apart here.
Tests used:
[1] = Effectiveness of adsorption (surface excess concentration, Gibbs equation); type: physicochemical
Source text: The surface excess concentration at surface saturation (Γmax) is defined as a measure of the effectiveness of surfactant adsorption at the water/air interface and represents the maximum value to which adsorption can be obtained. Effectiveness of adsorption is related to the interfacial area occupied by the surfactant molecule. The smaller the effective cross-sectional area of a surfactant at the interface, the greater its effectiveness of adsorption. The effectiveness of adsorption is an important factor in determining surfactant properties such as detergency, foaming, wetting or emulsification. While not wishing to be bound by theory, it is believed that surfactants that absorb effectively at the interface tend have tightly packed coherent interfacial films and often provide better surfactant benefits than those with loosely packed noncoherent films. The effectiveness of adsorption of C8 /C10 oxypropyl D-gluconamide was determined using the Gibbs equation given as: […]
(∂γ/∂log[Conc])T

[2] = 25 °C; cited from earlier work
[3] = cited from earlier work
[4] = cited from earlier work; remark: listed apart in the source
[5] = Effectiveness in reducing surface tension (surface pressure at CMC); type: physicochemical; settings: 60 °C
Source text: As mentioned before, surface tension reduction depends on the replacement of water molecules at the interface by surfactant molecules, therefore the effectiveness of a surfactant in reducing interfacial surface tension should reflect the saturated concentration of surfactant at the interface relative to that in bulk liquid phase. During this process the surface tension of water steadily decreases as bulk phase surfactant concentration increases. This will continue until the concentration reaches the critical micelle concentration (CMC), above which the surface tension remains nearly unchanged and the interface is saturated with surfactant. The surface tension at the CMC is therefore very close to the minimum interfacial tension or maximum surface pressure that the system can achieve. The surface pressure at this point, IIcmc, is a suitable measure of the effectiveness of a surfactant in reducing surface tension and is given as:
IIcmc =20+2.3nRT(Γmax) log[CMC/C20 ]
n=1 which represents the number of ions whose surface concentration changes with the change in liquid phase surfactant concentration.
CMC/C20 =is the ratio of the critical micelie concentration to the bulk phase surfactant concentration necessary to reduce the surface tension of water by 20 dyn/cm.

[6] = Efficiency in surface tension reduction (pC20); type: physicochemical; settings: 60 °C
Source text: Since surface tension reduction depends on the replacement of water molecules at the interface by surfactant molecules, the efficiency of a surfactant in reducing interfacial tension should reflect the concentration of surfactant at the interface relative to that in bulk liquid phase. […] This is defined as the negative logarithm of the bulk phase surfactant concentration necessary to reduce the surface tension of water by 20 dyn/cm and is given as:
C(-Δγ=20) =C20 is the bulk phase surfactant concentration necessary to reduce the surface tension of water by 20 dyn/cm.
In general, pC20 values are usually close to the minimum concentration needed to saturate the interface with surfactant molecules.

[7] = Packing parameter / micellar shape; type: physicochemical
Source text: A theory of miceliar structure, based upon the geometry of various micelie shapes and the space occupied by the surfactant has been disclosed by J. N. Israelachvili, D. J. Mitchell and B. W. Ninham in the J. Chem. Soc. Faraday Trans. 2, 1525, 72, (1976) which is given as the packing parameter (p).
VT=V(CH3) +(nc -1)V(CH2) and represents the volume occupied by the hydrophobic groups in the miceIlar core at a given temperature.
1c =1.50+1.26 nc Å and represents the length of the hydrophobic group in the core.
am =area per molecule or the cross-sectional area occupied by the hydrophilic group at the interface.

[8] = Surface tension at the water/air interface; type: physicochemical; settings: 60 °C
Description: An important characteristic feature that surfactants have is the tendency for them to absorb at the water/air interface in an oriented manner, thereby altering the interfacial free energy of that surface. The surface free energy per unit area or surface tension (T), is a measure of this work and may be considered as the minimum amount of work required to bring sufficient surfactant molecules to the surface.
The surface tension (t) value of C8 /C10 oxypropyl D-gluconamide was determined and is set forth below: […]

[9] = Krafft point; type: physicochemical; settings: 0.1% in water
Description: The temperature at and above which surfactants begin to form micelles instead of precipitates is referred to as the Krafft point (Tk) and at this temperature the solubility of a surfactant becomes equal to its CMC (numerical value at which micelles are formed).
The Krafft point was measured by preparing 650 ml of a 0.1% or 1.0% dispersion of aldonamide in water by weight. If the surfactant was soluble at room temperature, the solution was slowly cooled to 0° C. […] (less than zero). If it precipitated out of solution, the temperature at which precipitation occurs was taken as the Krafft point.
If the surfactant was insoluble at room temperature, the dispersion was slowly heated until the solution became homogeneous. It was then slowly cooled until precipitation occurred. The temperature at which the surfactant precipitates out of solution upon cooling was taken as the Krafft point.

[10] = Viscosity of sodium lauryl sulfate compositions (Example 88); type: physicochemical; settings: for Viscosity: 22° C.
Description: The prototype surfactant composition is as follows:
(§1) The above formulations were prepared by admixing the above ingredients in listed order and heating the mixture to about 80° C. with rapid stirring. The mixture was then cooled to about 40° C., placed in a clear jar and stored at room temperature for 6 months.
It is well known that the viscosity of a liquid composition comprising of anionic surfactant can be modified by the addition of inorganic salts, such as sodium chloride. However, in the absence of an organic modifier, high levels of salt may be necessary to achieve the required viscosity which may lead to problems of storage at cold temperature or even salting out certain ingredients. In practice, however, the viscosity of a liquid composition is modified by the simultaneous addition of thickener and small amounts of inorganic salt (viscosity cobuilder). The combined effect is greater than either one alone. The viscosity of the above prototype surfactant composition comprising various amounts of heteroatom containing alkyl aldonamide compound is as follows: […]

[11] = Clarity of prototype surfactant compositions (Example 87); type: physicochemical; settings: room temperature, 6 months
Description: The prototype shampoo composition is as follows:
as §1

[12] = Viscosity enhancement of sodium/ammonium lauryl sulfate compositions (formulation Example 86); type: physicochemical; settings: 4.0% thickener, 2395/22
[13] = system: zein
Source text: The zein solubilization assay was developed to determine the biological effects of surfactants on the skin. The protein is normally in soluble in water, but can be brought into solution by interaction with surfactants. The extent of zein dissolved is related to the irritation potential (M. J. Schwinger, Kolloid-Z. Z. Poly., 233, 848, 1969). The greater the zein solubilization, the greater the irritation potential of that surfactant on the skin.
Thus, a 1% solution of surfactant (30 mls) was added to 1.5 g of zein and stirred at room temperature for 1 hour. Residual zein was collected and dried to constant weight. Differences between starting and residual weights were used to calculate % zein solubilized.

## CCCCCCCCCCCCOCCOCCOCCOCCOCCOCCOCCOCCO [Dodecylocta(oxyethylene) Ether]
[1]; 60 °C, estimated by extrapolating a linear line
  Γmax (surface excess concentration at surface saturation): 2.40 × 10^-10 mole/cm^2
[2]
  pC20: 5.20
[3]; 25 °C
  Γmax (surface excess concentration at surface saturation): 2.52 × 10^-10 mole/cm^2
[3]; 40 °C
  Γmax (surface excess concentration at surface saturation): 2.46 × 10^-10 mole/cm^2
[4]; 25 °C
  Πcmc (surface pressure): 37.2 dyn/cm
[4]; 40 °C
  Πcmc (surface pressure): 37.3 dyn/cm
[5]; estimated by extrapolating a linear line
  Πcmc (surface pressure): 36.3 dyn/cm

## C8 /C10 oxypropyl D-gluconamide
[6]
  pC20: 4.78
[7]; T=333.15 K
  1a (length of the hydrophobic group in the core): 17.5 Å
[7]; aqueous media
  micelles predicted from packing parameter: cylindrical to lameliar micelles
[8]
  Surface tension γ: 29.2 dyn/cm
[9]
  Krafft Point (0.1%): 48 °C
[10]; 1.0% thickener
  Viscosity Increase: 13 x
  Viscosity: 200 Centipoise
[10]; 2.0% thickener
  Viscosity Increase: 27 x
  Viscosity: 400 Centipoise
[10]; 3.0% thickener
  Viscosity Increase: 80 x
  Viscosity: 1200 Centipoise
[10]; 4.0% thickener
  Viscosity Increase: 148 x
  Viscosity: 2220 Centipoise
[10]; 5.0% thickener
  Viscosity Increase: 860 x
  Viscosity: 12900 Centipoise
[1]; T=333.15 K
  slope of a plot of γ versus log[Conc]: -24.57 ergs/cm^2
[11]; 3.0% in […] sodium lauryl sulfate
  Appearance: Clear
[11]; 4.0% in […] sodium lauryl sulfate
  Appearance: Clear
[11]; 5.0% in […] sodium lauryl sulfate
  Appearance: Clear
[12]
  increase of viscosity from its normal viscosity: 109 times
[13]
  % Zein Solubilized: 6%
[5]
  CMC/C20: 5.7
  Πcmc (surface pressure): 38.5 dyn/cm
